Measurements taken from patent publication US20260034042A1, “Composition with Improved SPF and UVA Photoprotection” (Symrise AG, priority 2022, published 2026).

Assays:
Format in all cases: physicochemical
[1] = Determination of the in-vitro SPF on PMMA plates (Labsphere UV-200S, Colipa method)
Experimental: (§1) Determination of the in-vitro SPFs and UVA-PF
(§2) The SPF boosting and UVA-PF boosting test is carried out as in-vitro determination of SPFs.
(§3) Principle: The formulation to be tested (emulsion, solution) is weighed on PMMA plates with the help of an analytical balance. The formulation if distributed and incorporated on the plate using a method corresponding to the formulation. The thus prepared plates are then measured on a Labsphere device and the results are calculated as SPF with a suitable software.
(§4) PMMA plates (Polymethylmethacrylate), measuring 3 cm×8.5 cm (WVVW5 plates based on […] “Determination of UVA photoprotection in vitro” with 5μ roughness by Schonberg GmbH & Co. AG) are used to perform an SPF measurement.
(§5) A reference sample is obtained by distributing 25 to 28 mg glycerin (99.5%) with the index finger on the roughened side of the PMMA plate. The glycerin film must be very thin and uniform. Subsequently, this plate is stored for at least 2 hours.
(§6) The reference plate is measured with the following transmission values:
(§7) The sample to be measured should be homogeneously mixed with a spatula before application. 1.2 mg/cm2 of sample is evenly distributed in several rows of dots on the PMMA plate. In order to minimise the evaporation of the sample during weighing, this process must be carried out quickly. The sample is then evenly distributed by hand with a finger previously saturated with the sample material. The distribution takes place in two phases: • Phase 1: Fast and uniform distribution with a slight pressure until the emulsion is broken. • Phase 2: The sample is massaged into the rough surface with strong pressure and the process should last 30 seconds. In this context under strong pressure means that when massaged on a scale, this indicates at least […].
(§8) Sun oils: The product quantity is generally 1.3 mg/cm^2. For strongly spreading oils, less product is applied, as the amount of oil cannot be “absorbed” from the plate. Then the amount of application should be reduced to 1.0-0.75 mg/cm^2. Application method here is also the 30 s fast/light and 30 s strong method. • Sun sprays: The “30/30 method” applies here (especially for thicker sprays). • For very liquid sprays (similar to water): • Fast and uniform distribution with a slight pressure, until the emulsion “breaks”. • The process should take 45 s.
(§9) The finished sample plates are stored dust-free and measured at the earliest after 15 minutes.
(§10) The samples are measured using the UV-200S device, using the specified Colipa method. The Labsphere user manual also applies.
(§11) A new “Study” is opened via File and then the “Colipa Guideline 2011” method is selected under the heading “Study”. In the new window “Colipa Method Options” the number of plates (3 plates), the measuring points per plate (5 measuring points) and the in vivo SPF and, if necessary, the irradiance intensity of the external irradiance device (Solar Simulator Irradiance) entered. • The irradiance set on the external device is 765 W/m2 as standard. The complete naming of the sample is done via Study”, “Study Information”.
At the beginning of the measurement, a blank value of the glycerin reference sample is measured (“scan blank plate”). In order to determine the SPF of a sample, a total of 15 measuring points (3 plates of 5 measuring points) are then created (“Scan Location”).
• After the first measurement run, the device calculates an irradiation dose (Irradiation Dose/J/cm2) and the duration (exposure time) for each plate. The plates are irradiated in the external irradiation device (irradiation duration=average value of the 3 plates).
The calculation of irradiation dose and exposure time is based on the irradiance (765 W/m^2) set on the external device. […]

[2] = Determination of the in-vitro UVA-PF on PMMA plates (Labsphere UV-200S, Colipa method, post irradiation)
Experimental: UVA-photoprotection is expressed in UVA-protection factor (UVA-PF). UVA-PF is similar to SPF in that it is a measure of how well a sunscreen protects the skin from UVA radiation. It is performed in a similar manner by irradiating the skin with UVA. This can be done in vivo with human skin or in vitro, where it is performed by applying the sunscreen to an PMMA plate (Polymethymethacrylate plate) and measuring how much UVA passes through the slide with or without the sunscreen. To characterize protection from UVA radiation, the PPD (Persistent Pigment Darkening) method, which measures the color of the skin observed 2 to 4 hours after exposure of the skin to UVA radiation, is used. The PPD method appears to correlate well with the in vitro UVA-PF testing.
as §1, §2, §3, §4, §5, §6, §7, §8, §9, §10, §11
(§12) At the beginning of the measurement, a blank value of the glycerin reference sample is measured (“scan blank plate”). […]

[3] = Critical wavelength of the sunscreen formulation (post irradiation)
Description: The term “broad-spectrum photo-protection” means photo-protection from both UVA and UVB radiation. Broad-spectrum is based on the breadth of protection offered by a sunscreen in the UVA and UVB spectrums. In order for a sunscreen to be considered broad-spectrum, it must have achieved a critical wavelength of at least 370 nm, meaning that 10% of the protection that the sunscreen offers has to be for wavelengths above 370 nm. A critical wavelength>370 nm is a rigorous minimum that sunscreen products should achieve to be labelled as broad-spectrum”.
The term “critical wavelength” is defined as the wavelength at which the area under the UV protection curve (% protection versus wavelength) represents 90% of the total area under the curve in the UV region (280-400 nm). […]
In order to calculate the critical wavelength (λc), mathematical integration of the measured spectral absorbance from […] to 400 nm is performed to calculate the area beneath the absorbance curve. The critical wavelength value is based upon the inherent shape and breadth of the absorbance cure, not its amplitude. The critical wavelength is the wavelength below which 90% of the area under the absorbance curve sides. […]
The samples are measured using the UV-200S device, using the specified Colipa method. […]
as §12

[4] = 1.0% by weight added to sunscreen with modern organic UV-filter mixture (Example 1; control SPF 31.7)
[5] = 1.0% by weight, classic organic UV-filter combination (Example 3)
[6] = 1.0% by weight, classic organic UV-filter combination (Example 3; control SPF 33.7)
[7] = 1.0% by weight, modern organic UV-filter mixture (Example 1)
[8] = 3.0% by weight added to sunscreen with modern organic UV-filter mixture (Example 1; control SPF 31.7)
[9] = 3.0% by weight, classic organic UV-filter combination (Example 3)
[10] = 3.0% by weight, classic organic UV-filter combination (Example 3; control SPF 33.7)
[11] = 3.0% by weight, modern organic UV-filter mixture (Example 1)
[12] = 3.0%, modern organic UV-filter mixture (Example 1)

| critical wavelength ([3]; 1.0% and 3.0%, classic sunscreen composition (Example 3; without MAA 380 nm)) | critical wavelength ([3]; 3.0%, modern sunscreen composition (Example 1; without MAA 378 nm)) | SMILES | in vitro SPF higher than control/reference sample without MAA ([1]; 1.0% by weight, modern organic UV-filter mixture of Example 2) | in vitro SPF ([1]; 1.0% by weight, modern organic UV-filter mixture of Example 2 (control SPF 52.4)) | improvement of the UVA-PF compared to the control sample ([2]; 1.0%, modern organic UV-filter mixture of Example 2) | in vitro SPF [1, 4] | in vitro SPF higher than reference sample without MAA [1, 5] | in vitro SPF [1, 6] | in vitro SPF higher than reference sample without MAA [1, 7] | in vitro SPF [1, 8] | in vitro SPF higher than reference sample without MAA [1, 9] | in vitro SPF [1, 10] | in vitro SPF higher than reference sample without MAA [1, 11] | improvement of the UVA-PF compared to the control sample [2, 12] | improvement of the UVA-PF compared to the control sample ([2]; 1.0%, classic organic UV-filter combination (Example 3)) | improvement of the UVA-PF compared to the control sample ([2]; 1.0%, modern organic UV-filter mixture (Example 1)) | improvement of the UVA-PF compared to the control sample ([2]; 3.0%, classic organic UV-filter combination (Example 3)) |
| --- | --- | --- | --- | --- | --- | --- | --- | --- | --- | --- | --- | --- | --- | --- | --- | --- | --- |
|  |  | CC1(C)CC(NCC(=O)O)=C/C(=N/c2ccccc2)C1 [MAA-20, 2-[(5,5-dimethyl-3-phenylimino-cyclohexen-1-yl)amino]acetic acid] | 9% | 57.1 | 18.2% |  |  |  |  |  |  |  |  |  |  |  |  |
|  |  | CCOC(=O)CNC1=C/C(=N/c2ccccc2)CC(C)(C)C1 [MAA-1, ethyl 2-[[5,5-dimethyl-3-phenylimino-cyclohexen-1-yl]amino]acetate] |  |  |  | 53.4 | 5.0% | 35.4 | 68.5% | 86.1 | 61.4% | 54.4 | 171.6% | 9.35% |  |  |  |
| 381 nm | 379 nm | COc1ccc(/N=C2\CC(C)(C)CC3=C2SCC(C(=O)O)N3)cc1OC (centres unmarked) [MAA-13, 8-((3,4-dimethoyxphenyl)imino)-6,6-dimethyl-3,4,5,6,7,8-hexahydro-2-H-benzol[b][1,4]thiazine-3-carboxylic acid] |  |  |  | 34.4 | 7.7% | 36.3 | 8.52% | 39.8 | 87.2% | 63.1 | 25.6% | 30.75% | 3.2% | 14.8% | 5.2% |
